Data: US9963434B2, “N-arylmethyl sulfonamide negative modulators of NR2A” (LUC THERAPEUTICS, priority 2013, dated 2018)
Where two headings read alike, the source gives them in different places.

Biological target: NR1/NR2A (Homo sapiens (Human), UniProt Q05586+Q12879)
Experiment: FDSS Ca2+ influx inhibition assay in HEK293 cells expressing NR1/NR2A
Type: cell-based
Conditions: 3 μM glutamate, 3 μM glycine, 1 mM Ca2+
Experimental: Cell Culture and plating: HEK293 cells expressing NR1/NR2A (Chantest, Cleveland, Ohio) were grown to 70-80% confluency as an adherent monolayer in standard tissue culture flasks at 37° C., 5% CO2 per supplier's instructions.
After induction, cell culture medium was removed and cells were rinsed once with Ca^2+ and Mg^2+-free Dulbecco's phosphate buffered saline. Cells were then removed from the flask using TrypLE™ Express (Life Technologies) according to the manufacturer's instructions and collected to 50 ml centrifuge tubes. Following two washes in Ca^2+/Mg^2+-free HBSS with 20 mM HEPES (HHnoCa), cells were counted and viability assessed using trypan blue. To load cells with Ca^2+-sensitive dye, they were resuspended in fluo-8 plus Component B (AAT Bioquest Products) diluted in HHnoCa and incubated 15 minutes at 37° C., followed by 30 minutes at room temp (in dark). Cells were then washed and resuspended in HHnoCa to remove extracellular dye and plated in 384-well plates (Falcon, uncoated) at 20,000-30,000 cells/well in a final volume of 25 μL/well.
FDSS Assay: To each well of the plate, 10 μL test compound, control (MK801) or HHnoCa buffer was added to a final concentration of 10 μM with a final concentration of DMSO of 0.1%. Following 10 minutes pre-incubation in the dark, plates are loaded onto the Hamamatsu FDSS 6000. After collecting baseline fluorescence images, 3 μM glutamate, 3 μM glycine, and 1 mM Ca^2+ in HHnoCa buffer is added to each well, and Ca^2+ is recorded for 3 minutes. Data were processed by computing ratio of fluorescence at the end of data collection to baseline fluorescence to assess degree of Ca^2+ influx inhibition relative to that observed in MK801.

[1] = inhibition relative to MK801, read-out: NR2A IC50

Sequence of NR1/NR2A (Q12879 23-1464, other chains not shown): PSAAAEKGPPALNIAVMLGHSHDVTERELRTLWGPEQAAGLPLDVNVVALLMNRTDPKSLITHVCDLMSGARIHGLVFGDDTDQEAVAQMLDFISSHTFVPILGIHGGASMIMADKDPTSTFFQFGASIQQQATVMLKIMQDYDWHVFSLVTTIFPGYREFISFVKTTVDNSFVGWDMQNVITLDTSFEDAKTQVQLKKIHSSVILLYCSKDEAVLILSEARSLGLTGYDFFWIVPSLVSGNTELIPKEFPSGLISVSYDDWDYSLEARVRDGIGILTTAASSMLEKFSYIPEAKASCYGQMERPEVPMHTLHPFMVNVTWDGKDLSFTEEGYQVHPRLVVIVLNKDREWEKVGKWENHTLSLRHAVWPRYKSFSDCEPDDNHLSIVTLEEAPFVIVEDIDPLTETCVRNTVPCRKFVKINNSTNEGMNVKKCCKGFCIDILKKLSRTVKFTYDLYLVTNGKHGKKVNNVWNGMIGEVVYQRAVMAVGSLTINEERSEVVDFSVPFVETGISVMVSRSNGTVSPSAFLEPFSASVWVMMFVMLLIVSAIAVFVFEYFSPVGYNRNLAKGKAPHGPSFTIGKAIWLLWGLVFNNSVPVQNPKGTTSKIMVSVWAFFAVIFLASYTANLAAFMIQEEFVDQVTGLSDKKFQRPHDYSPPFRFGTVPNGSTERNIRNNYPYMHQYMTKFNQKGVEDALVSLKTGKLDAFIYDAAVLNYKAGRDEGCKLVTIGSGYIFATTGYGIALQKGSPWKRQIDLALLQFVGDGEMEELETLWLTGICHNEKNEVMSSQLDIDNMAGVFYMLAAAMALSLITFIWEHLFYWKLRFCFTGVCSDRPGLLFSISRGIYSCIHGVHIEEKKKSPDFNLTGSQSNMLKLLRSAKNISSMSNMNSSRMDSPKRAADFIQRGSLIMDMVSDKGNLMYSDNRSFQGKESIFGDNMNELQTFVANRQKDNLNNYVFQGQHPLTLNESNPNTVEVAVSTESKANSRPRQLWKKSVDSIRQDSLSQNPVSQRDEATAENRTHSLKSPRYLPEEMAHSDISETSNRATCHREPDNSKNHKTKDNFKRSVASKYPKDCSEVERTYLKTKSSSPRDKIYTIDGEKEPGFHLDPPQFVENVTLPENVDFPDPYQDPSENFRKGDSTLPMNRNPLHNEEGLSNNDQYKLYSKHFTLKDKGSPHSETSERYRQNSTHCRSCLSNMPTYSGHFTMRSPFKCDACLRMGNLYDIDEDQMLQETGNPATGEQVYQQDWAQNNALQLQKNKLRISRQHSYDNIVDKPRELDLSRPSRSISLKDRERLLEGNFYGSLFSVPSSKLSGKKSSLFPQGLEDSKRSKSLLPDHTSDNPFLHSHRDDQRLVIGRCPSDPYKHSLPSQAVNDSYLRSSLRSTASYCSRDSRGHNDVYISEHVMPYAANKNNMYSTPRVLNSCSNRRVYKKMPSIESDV

Row | SMILES | IC50 (read-out: Binned Activity) [µM] | IC50 [1] [µM]
1 | Cc1ncc(CNC(=O)c2cnc(CNS(=O)(=O)c3cc(F)cc(F)c3)cn2)s1 [5-(3,5-difluorobenzenesulfon-amidomethyl)-N-[(2-methyl-1,3-thiazol-5-yl)methyl]pyrazine-2-carboxamide] | > 10 | 10
2 | Cc1ncc(CNC(=O)c2ccc(CNS(=O)(=O)c3cc(F)cc(F)c3)cn2)s1 [5-(3,5-difluorobenzenesulfon-amidomethyl)-N-[(2-methyl-1,3-thiazol-5-yl)methyl]pyridine-2-carboxamide] | > 10 | 10
3 | O=C(NC1CCS(=O)(=O)C1)c1cnc(CNS(=O)(=O)c2ccc(F)c(Cl)c2)cn1 (stereo not drawn) [5-(3-chloro-4-fluorobenzenesulfon-amidomethyl)-N-(1,1-dioxo-1λ^6-thiolan-3-yl)pyrazine-2-carboxamide] | > 10 | 10
4 | O=C(NC1CCS(=O)(=O)C1)c1ccc(CNS(=O)(=O)c2ccc(F)c(Cl)c2)cn1 (stereo not drawn) [5-(3-chloro-4-fluorobenzenesulfon-amidomethyl)-N-(1,1-dioxo-1λ^6-thiolan-3-yl)pyridine-2-carboxamide] | > 10 | 10
5 | O=C(NCc1cocn1)c1cnc(CNS(=O)(=O)c2ccc(F)c(Cl)c2)cn1 [5-(3-chloro-4-fluorobenzenesulfon-amidomethyl)-N-(1,3-oxazol-4-ylmethyl)pyrazine-2-carboxamide] | > 10 | 10
6 | O=C(NCc1cocn1)c1ccc(CNS(=O)(=O)c2ccc(F)c(Cl)c2)cn1 [5-(3-chloro-4-fluorobenzenesulfon-amidomethyl)-N-(1,3-oxazol-4-ylmethyl)pyridine-2-carboxamide] | > 10 | 10
7 | O=C(NCc1nccs1)c1cnc(CNS(=O)(=O)c2ccc(F)c(Cl)c2)cn1 [5-(3-chloro-4-fluorobenzenesulfon-amidomethyl)-N-(1,3-thiazol-2-ylmethyl)pyrazine-2-carboxamide] | > 10 | 10
8 | O=C(NCc1ccco1)c1ccc(CNS(=O)(=O)c2ccc(F)c(Cl)c2)cn1 [5-(3-chloro-4-fluorobenzenesulfon-amidomethyl)-N-(furan-2-ylmethyl)pyridine-2-carboxamide] | > 10 | 10
9 | O=C(NCc1ccoc1)c1ccc(CNS(=O)(=O)c2ccc(F)c(Cl)c2)cn1 [5-(3-chloro-4-fluorobenzenesulfon-amidomethyl)-N-(furan-3-ylmethyl)pyridine-2-carboxamide] | > 10 | 10
10 | O=C(NCc1ccccn1)c1cnc(CNS(=O)(=O)c2ccc(F)c(Cl)c2)cn1 [5-(3-chloro-4-fluorobenzenesulfon-amidomethyl)-N-(pyridin-2-ylmethyl)pyrazine-2-carboxamide] | > 10 | 10
11 | O=C(NCc1ccccn1)c1ccc(CNS(=O)(=O)c2ccc(F)c(Cl)c2)cn1 [5-(3-chloro-4-fluorobenzenesulfon-amidomethyl)-N-(pyridin-2-ylmethyl)pyridine-2-carboxamide] | > 10 | 10
12 | O=C(NCc1cccnc1)c1ncc(CNS(=O)(=O)c2ccc(F)c(Cl)c2)cn1 [5-(3-chloro-4-fluorobenzenesulfon-amidomethyl)-N-(pyridin-3-ylmethyl)pyrimidine-2-carboxamide] | > 10 | 10
13 | O=C(NCc1ccncc1)c1ccc(CNS(=O)(=O)c2ccc(F)c(Cl)c2)cn1 [5-(3-chloro-4-fluorobenzenesulfon-amidomethyl)-N-(pyridin-4-ylmethyl)pyridine-2-carboxamide] | > 10 | 10
14 | O=C(NCc1ncccn1)c1ccc(CNS(=O)(=O)c2ccc(F)c(Cl)c2)cn1 [5-(3-chloro-4-fluorobenzenesulfon-amidomethyl)-N-(pyrimidin-2-ylmethyl)pyridine-2-carboxamide] | > 10 | 10
15 | O=C(NCc1ccncn1)c1cnc(CNS(=O)(=O)c2ccc(F)c(Cl)c2)cn1 [5-(3-chloro-4-fluorobenzenesulfon-amidomethyl)-N-(pyrimidin-4-ylmethyl)pyrazine-2-carboxamide] | > 10 | 10

More lines, now with the values ahead:

Row | IC50 (read-out: Binned Activity) [µM] | IC50 [1] [µM] | SMILES
16 | 0.1 to 1 | – | Cc1ncc(CNC(=O)c2cnc(CNS(=O)(=O)c3ccc(F)c(F)c3)cn2)s1 [5-(3,4-difluorobenzenesulfon-amidomethyl)-N-[(2-methyl-1,3-thiazol-5-yl)methyl]pyrazine-2-carboxamide]
17 | 0.1 to 1 | – | Cc1ncc(CNC(=O)c2ccc(CNS(=O)(=O)c3ccc(F)c(F)c3)cn2)s1 [5-(3,4-difluorobenzenesulfon-amidomethyl)-N-[(2-methyl-1,3-thiazol-5-yl)methyl]pyridine-2-carboxamide]
18 | > 10 | 10 | Cc1ncc(CNC(=O)c2cnc(CNS(=O)(=O)c3cc(Cl)cc(Cl)c3)c(C)n2)s1 [5-(3,5-dichlorobenzenesulfon-amidomethyl)-6-methyl-N-[(2-methyl-1,3-thiazol-5-yl)methyl]pyrazine-2-carboxamide]
19 | > 10 | 10 | Cc1ncc(CNC(=O)c2cnc(CNS(=O)(=O)c3cc(Cl)cc(Cl)c3)cn2)s1 [5-(3,5-dichlorobenzenesulfon-amidomethyl)-N-[(2-methyl-1,3-thiazol-5-yl)methyl]pyrazine-2-carboxamide]
20 | > 10 | 10 | Cc1ncc(CNC(=O)c2ccc(CNS(=O)(=O)c3cc(Cl)cc(Cl)c3)cn2)s1 [5-(3,5-dichlorobenzenesulfon-amidomethyl)-N-[(2-methyl-1,3-thiazol-5-yl)methyl]pyridine-2-carboxamide]
21 | 0.1 to 1 | – | Cc1ncc(CNC(=O)c2cnc(CNS(=O)(=O)c3cc(F)cc(F)c3)c(C)n2)s1 [5-(3,5-difluorobenzenesulfon-amidomethyl)-6-methyl-N-[(2-methyl-1,3-thiazol-5-yl)methyl]pyrazine-2-carboxamide]
22 | < 0.1 | – | CCc1nc(C(=O)NCc2cnc(C)s2)cnc1CNS(=O)(=O)c1ccc(F)c(Cl)c1 [5-(3-chloro-4-fluorobenzenesulfon-amidomethyl)-6-ethyl-N-[(2-methyl-1,3-thiazol-5-yl)methyl]pyrazine-2-carboxamide]
23 | < 0.1 | – | Cc1ncc(CNC(=O)c2cnc(CNS(=O)(=O)c3ccc(F)c(Cl)c3)c(C)n2)s1 [5-(3-chloro-4-fluorobenzenesulfon-amidomethyl)-6-methyl-N-[(2-methyl-1,3-thiazol-5-yl)methyl]pyrazine-2-carboxamide]
24 | 1 to 10 | – | O=C(NCc1ccno1)c1ccc(CNS(=O)(=O)c2ccc(F)c(Cl)c2)cn1 [5-(3-chloro-4-fluorobenzenesulfon-amidomethyl)-N-(1,2-oxazol-5-ylmethyl)pyridine-2-carboxamide]
25 | 1 to 10 | – | O=C(NCc1cnco1)c1ccc(CNS(=O)(=O)c2ccc(F)c(Cl)c2)cn1 [5-(3-chloro-4-fluorobenzenesulfon-amidomethyl)-N-(1,3-oxazol-5-ylmethyl)pyridine-2-carboxamide]
26 | 1 to 10 | – | O=C(NCc1nccs1)c1ccc(CNS(=O)(=O)c2ccc(F)c(Cl)c2)cn1 [5-(3-chloro-4-fluorobenzenesulfon-amidomethyl)-N-(1,3-thiazol-2-ylmethyl)pyridine-2-carboxamide]
27 | 0.1 to 1 | – | O=C(NCc1cncs1)c1cnc(CNS(=O)(=O)c2ccc(F)c(Cl)c2)cn1 [5-(3-chloro-4-fluorobenzenesulfon-amidomethyl)-N-(1,3-thiazol-5-ylmethyl)pyrazine-2-carboxamide]
28 | 0.1 to 1 | – | O=C(NCc1cncs1)c1ccc(CNS(=O)(=O)c2ccc(F)c(Cl)c2)cn1 [5-(3-chloro-4-fluorobenzenesulfon-amidomethyl)-N-(1,3-thiazol-5-ylmethyl)pyridine-2-carboxamide]
29 | 1 to 10 | – | O=C(NCc1cnccn1)c1cnc(CNS(=O)(=O)c2ccc(F)c(Cl)c2)cn1 [5-(3-chloro-4-fluorobenzenesulfon-amidomethyl)-N-(pyrazin-2-ylmethyl)pyrazine-2-carboxamide]
30 | 1 to 10 | – | O=C(NCc1cnccn1)c1ccc(CNS(=O)(=O)c2ccc(F)c(Cl)c2)cn1 [5-(3-chloro-4-fluorobenzenesulfon-amidomethyl)-N-(pyrazin-2-ylmethyl)pyridine-2-carboxamide]
31 | 0.1 to 1 | – | O=C(NCc1cccnc1)c1cnc(CNS(=O)(=O)c2ccc(F)c(Cl)c2)cn1 [5-(3-chloro-4-fluorobenzenesulfon-amidomethyl)-N-(pyridin-3-ylmethyl)pyrazine-2-carboxamide]
32 | 0.1 to 1 | – | O=C(NCc1cccnc1)c1ccc(CNS(=O)(=O)c2ccc(F)c(Cl)c2)cn1 [5-(3-chloro-4-fluorobenzenesulfon-amidomethyl)-N-(pyridin-3-ylmethyl)pyridine-2-carboxamide]
33 | 1 to 10 | – | O=C(NCc1ccncc1)c1cnc(CNS(=O)(=O)c2ccc(F)c(Cl)c2)cn1 [5-(3-chloro-4-fluorobenzenesulfon-amidomethyl)-N-(pyridin-4-ylmethyl)pyrazine-2-carboxamide]
